pIC50: −log10 of the molar value.
Target: Histone deacetylase 1 (Homo sapiens, UniProt Q13547)
Assay: Inhibition of HDAC1 (unknown origin) using 6-carboxyfluorescein peptide as substrate preincubated with compound followed by substrate addition by electrophoretic mobility shift assay

Histone deacetylase 1, sequence (Q13547 whole entry): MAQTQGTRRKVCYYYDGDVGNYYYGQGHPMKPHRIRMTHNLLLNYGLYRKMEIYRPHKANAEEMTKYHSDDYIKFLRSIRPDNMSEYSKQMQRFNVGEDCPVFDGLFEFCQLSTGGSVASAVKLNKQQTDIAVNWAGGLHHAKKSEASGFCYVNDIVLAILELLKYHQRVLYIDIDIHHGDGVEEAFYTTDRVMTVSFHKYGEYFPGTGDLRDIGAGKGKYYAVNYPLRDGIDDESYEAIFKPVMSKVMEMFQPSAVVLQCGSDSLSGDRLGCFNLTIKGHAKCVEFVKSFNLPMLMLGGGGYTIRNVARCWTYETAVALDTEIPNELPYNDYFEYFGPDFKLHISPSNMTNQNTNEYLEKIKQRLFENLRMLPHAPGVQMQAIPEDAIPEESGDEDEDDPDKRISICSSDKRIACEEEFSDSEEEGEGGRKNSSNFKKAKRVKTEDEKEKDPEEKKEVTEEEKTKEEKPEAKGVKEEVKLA

pIC50: 6.16
Structure (SMILES): C=CC(=O)N1CCC(OC(=O)NCc2ccc(C(=O)Nc3ccccc3N)cc2)CC1
